What was measured:
A2A receptor [1] = molecular target: T1, A2A receptor (Homo sapiens, UniProt P29274); assay: Inhibition of cAMP production in HEK cells; assay type: cell-based; conditions: HEK-293 cells with A2A receptor
A2AR = A2AR (Mus musculus, UniProt Q60613); conditions: 10 mg/kg PO 30 min prior to CGS21680; score observed in at least 60-100% of mice for 30 minutes
in vitro = conditions: human, Caco-2, pH 7.4
Method: 2 μM dosing solutions for reference compounds and test compounds are prepared by spiking the appropriate volume of intermediate solution to TB with and without 1 μM Zosuquidar. The final concentration of DMSO is no more than 1% (v/v).
Caco-2 cells are grown in MEM supplemented with 2 mM L-glutamine, 10% FBS, 100 U/mL penicillin-G and 100 μg/mL streptomycin. The cells are incubated at 37° C., 5% CO2 and relatively saturated humidity. After reaching 80-90% confluency, the cells are gently detached with 0.05% trypsin-EDTA solution.
TB and dosing solutions were pre-warmed to 37° C. before transport assay. The cell monolayer was washed twice with HBSS containing 10 mM HEPES. For A-B (apical to basolateral) directional transport assay, 75 μL dosing solution is added to the apical well. Fill each basolateral well with 250 μL TB. For B-A (basolateral to apical) directional transport assay, 250 μL of dosing solution is added to the basolateral well after filling each apical well with 75 μL TB. […] The plates are incubated for 120 minutes at 37° C. with 5% CO2 and saturated humidity. The time zero samples are generated by mixing 50 μL initial dosing solution of test compound or reference compound with 100 μL TB and 250 μL quench solution (acetonitrile (ACN) or other appropriate solvent with internal standard(s), based on the bioanalytical method development). At 120 minutes, 150 μL of solution is collected from each A-B receiver well followed by addition of 250 μL quench solution to get A-B receiver sample. And for other samples (A-B donor, B-A donor and receiver), 50 μL of solution is collected from each corresponding well followed by addition of 250 μL quench solution and 100 μL TB. All samples are vortex-mixed and centrifuged at 3220 g for 20 minutes. Subsequently, supernatant is diluted with ultra pure water for LC-MS/MS analysis. The concentrations of test compound in all samples are determined by LC-MS/MS and expressed as peak area ratio of analyte to internal standard.
The concentration of samples is expressed using the peak area ratio of Analyte to Internal Standard (Analyte/IS).
The efflux ratio is calculated using the following equation: Efflux ratio=Papp(A−B)/Papp(B−A) • where Papp (A−B) and Papp (B−A) are the Papp values of compound in Apical to Basolateral and Basolateral to Apical directional transport, respectively.

A2A receptor [2] = molecular target: T1, A2A receptor; assay: Human IL-2 T cell assay (restoration of IL-2 production in CGS-21680-treated CD3+ T cells); assay type: cell-based; design: endogenous in cells; host or cells: human CD3+ T cells isolated from venous blood of healthy volunteers; conditions: restoration of IL-2 production, human CD3+ T cells, anti-CD3/CD28 beads, 72 hours
Source text: When T-cells are activated, they produce pro-inflammatory cytokines. When the A2A receptor is activated in T cells, the amount of cytokines produced in response to stimulation of T-cells is reduced.
Venous blood from healthy volunteers, all of whom signed an informed consent approved by the Ethics Committee (FOR-UIC-BV-050-01-01 ICF_HBS_HD Version 5.0), was obtained via ImmuneHealth (Centre Hospitalier Universitaire Tivoli, La Louviere, Belgium). Mononuclear cells were collected by density gradient centrifugation, using SepMate-50 tubes (StemCell Technologies, Grenoble, France) and Lymphoprep (Axis-shield, Oslo, Norway) according to the manufacturer's instructions. CD3+ T cells were isolated by immunomagnetic negative selection, using the EasySep Human T Cell Isolation Kit (StemCell Technologies) as per manufacturer's instructions. CD3+ T cells were stored in heat inactivated foetal bovine serum (hiFBS; Gibco, ThermoFisher Scientific, Merelbeke, Belgium) containing 10% DMSO in liquid nitrogen.
Human purified CD3+ T cells were thawed and washed twice with RPMI1640 medium (with UltraGlutamine; Lonza, Verviers, Belgium) supplemented with 1× non-essential amino acids (Lonza), 2% Pen/Strep (Lonza) and 1 mM Sodium Pyruvate (Gibco) (complete media), containing 10% hiFBS. The cells were suspended either in complete media containing 20% hiFBS or in 100% heat inactivated human serum (hiHS; Sigma-Aldrich, Diegem, Belgium). Cells were activated by adding anti-CD3 and anti-CD28 coated microbeads (Dynabeads human T-activator CD3/CD28; Life Technologies, Paisley, UK), suspended either in complete media containing 20% hiFBS or in 100% hiHS. […] Serial dilutions of the compounds of the present invention were prepared and added to the wells. The cells were placed in a 37° C. humidified tissue culture incubator with 5% CO2 for 72 hours. After 72 hours, supernatants were sampled and IL-2 was quantified using the IL-2 (human) AlphaLISA Biotin-Free Detection Kit (AL333F; Perkin-Elmer, Zaventem, Belgium), according to the manufacturer's instructions.

A2A receptor [3] = molecular target: T1, A2A receptor; assay: Modulation of pCREB in human immune cells; assay type: cell-based; design: endogenous in cells; host or cells: human CD3+ T cells isolated from venous blood of healthy volunteers; conditions: read-out: IC50 of pCREB inhibition
Method: The A2A receptor is known to mediate CREB phosphorylation.
Venous blood from healthy volunteers, all of whom signed an informed consent approved by the Ethics Committee (FOR-UIC-BV-050-01-01 ICF_HBS_HD Version 5.0), was obtained via ImmuneHealth (Centre Hospitalier Universitaire Tivoli, La Louviere, Belgium). […] All dilutions were prepared in RPMI1640 medium (with UltraGlutamine; Lonza, Verviers, Belgium), and cells were incubated with compounds in a 37° C. humidified tissue culture incubator with 5% CO2. After stimulation, cells were fixed and permeabilized, followed by intracellular staining using mouse anti-human pCREB antibodies (Clone J151-21; BD Biosciences) at room temperature. Data were acquired using an LSRFortessa flow cytometer (BD Biosciences) and analyzed using FlowJo software (FlowJo, LLC, Ashland, Oreg.).

T1 sequence (P29274 whole entry): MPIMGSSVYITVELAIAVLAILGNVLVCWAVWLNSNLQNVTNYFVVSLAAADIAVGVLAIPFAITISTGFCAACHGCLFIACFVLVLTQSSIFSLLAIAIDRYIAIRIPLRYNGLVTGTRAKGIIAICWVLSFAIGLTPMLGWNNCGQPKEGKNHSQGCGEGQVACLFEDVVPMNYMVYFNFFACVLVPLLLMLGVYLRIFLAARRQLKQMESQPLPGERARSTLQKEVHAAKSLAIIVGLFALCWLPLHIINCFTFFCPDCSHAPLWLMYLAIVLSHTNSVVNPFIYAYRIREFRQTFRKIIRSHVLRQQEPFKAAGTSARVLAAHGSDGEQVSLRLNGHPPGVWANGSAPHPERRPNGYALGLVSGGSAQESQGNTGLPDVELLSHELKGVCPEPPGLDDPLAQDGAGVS
Sequence of A2AR (Q60613 whole entry): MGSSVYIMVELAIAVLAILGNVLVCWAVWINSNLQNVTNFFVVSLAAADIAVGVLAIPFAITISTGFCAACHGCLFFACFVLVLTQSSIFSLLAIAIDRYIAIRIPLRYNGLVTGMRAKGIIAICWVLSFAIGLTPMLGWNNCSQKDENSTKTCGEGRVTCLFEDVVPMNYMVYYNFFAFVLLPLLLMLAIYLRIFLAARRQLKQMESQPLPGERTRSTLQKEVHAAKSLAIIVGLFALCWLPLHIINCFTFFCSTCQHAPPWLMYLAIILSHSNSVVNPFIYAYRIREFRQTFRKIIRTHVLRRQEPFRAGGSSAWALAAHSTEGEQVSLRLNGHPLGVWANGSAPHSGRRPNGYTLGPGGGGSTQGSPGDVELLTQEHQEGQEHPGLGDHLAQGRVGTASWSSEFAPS

NC(=O)COc1cc(N2CCN(CCn3c(=O)sc4c3nc(N)n3nc(-c5ccco5)nc43)CC2)c(F)cc1F [Compound 4, 2-(5-(4-(2-(5-amino-8-(furan-2-yl)-2-oxothiazolo[5,4-e][1,2,4]triazolo [1,5-c]pyrimidin-3(2H)-yl)ethyl)piperazin-1-yl)-2,4-difluorophenoxy)acetamide]
IC50 (A2A receptor [1]; IC50 (nM) (3 nM NECA as agonist, 0.1% BSA), 3 nM NECA as agonist, 0.1% BSA): 0.5 nM
IC50 (A2A receptor [1]; IC50 (nM) (5 nM NECA as agonist, 2% HSA), 5 nM NECA as agonist, 2% HSA): 2 nM
IC50 (A2A receptor [1]; IC50 (nM) (5 μM Adenosine as agonist, 2.0% HSA), 5 μM Adenosine as agonist, 2.0% HSA): 49 nM
Score (locomotion / immobility) (A2AR): +++
efflux ratio at 120 min, 2 μM (in vitro): 123
IC50 (A2A receptor [2]; IC50 (nM) (500 nM CGS-21680 as agonist, 10% FBS), 500 nM CGS-21680, 10% FBS): 0.3 nM
IC50 (A2A receptor [2]; IC50 (nM) (5000 nM CGS-21680 as agonist, 50% HSA), 5000 nM CGS-21680, 50% HSA): 63 nM
IC50 (A2A receptor [3]): 20 nM
